Measurements taken from patent US20080262080A1, “Allergy Suppressive Agent” (KYUSHU UNIVERSITY, NATIONAL UNIVERSITY CORPORATION, priority 2004, published 2008).

Legend:
[1] = test system: STAT6; assay: Chrysin intake test: STAT6 phosphorylation in spleen lymphocytes of orally dosed mice; assay type: in vivo, mouse
Experimental: Spleen lymphocytes collected from mice, to which chrysin had been orally administered continuously, were stimulated with LPS or LPS+IL-4 (500 U/ml) and phosphorylated STAT6 was detected by immunoprecipitation using anti-STAT6 antibody and immunoblotting. 200 μL portions of 0.4 mg/mL chrysin and 200 μL portions of 1% DMSO in 1% EtOH were administered respectively to groups (n=8) in accordance with the following administration schedule. To male C57BL/6N mice aged 5 weeks that had been preliminarily fed (MF feed) for 1 week, the samples were administered once every 2 days for 2 weeks (7 times in total; total dose: 0.56 mg (28 mg/kg) per animal). After sacrificing, spleen lymphocytes were collected from the spleen of each mouse, adjusted to a density of 2×10^7 cells/mL and stimulated with 25 μg/mL of lipopolysaccharide (LPS) or LPS+IL-4 (500 U/mL) for 30 min. Then, the cells were lysed and phosphorylated STAT6 was detected by immunoprecipitation with the use of anti-STAT6 antibody and immunoblotting to thereby examine the response to IL-4.

[2] = test system: STAT6; assay: Detection of phosphorylated STAT6 in IL-4-treated DND39 cells; assay type: cell-based, human; details: IL-4 (100 U/ml), chrysin at various concentrations, 30 min
Experimental: DND39 cells were treated with IL-4 (100 U/ml) and chrysin at various concentrations and then lysed. Each cell lysate was subjected to immunoprecipitation using anti-STAT6 antibody. The immunoprecipitate was subjected to 8% SDS-PAGE and transferred onto a nitrocellulose membrane and phosphorylated STAT6 was detected. The density of DND39 cells was adjusted to 2×10^6 cells/mL and IL-4 (100 U/mL) and chrysin at each concentration were added thereto. Then, the cells were lysed by treating for 30 min. The cell lysate was subjected to immunoprecipitation using anti-STAT6 antibody. The immunoprecipitate was subjected to 8% SDS-PAGE and blotted onto a nitrocellulose membrane. Then phosphorylated STAT6 was detected using anti-tyrosine phosphorylation antibody (PY20).

[3] = test system: blood cytokine levels; assay: Blood cytokine levels of OVA-sensitized mice after chrysin intake (Mouse Cytokine Array); assay type: in vivo
Description: Blood was collected as in Example 6 and 32 kinds of cytokines (6 Ckine, CTACK, Eotaxin, G-CSF, GM-CSF, IL-2, IL-3, Il-4, IL-5, Il-6, IL-9, IL-10, IL-12, IL-12p70, IL-13, IL-17, IFN-γ, KC, Leptin, MCP-1, MCP-5, MIP-1α, MIP-2, MIP-3β, RANTES, SCF, sTNFRI, TARC, TIMP-1, TNF-α, Tpo and VEGF) were detected using Ray Bio™ Mouse Cytokine Array (Ray Biotech, Inc.).

SMILES: O=c1cc(-c2ccccc2)oc2cc(O)cc(O)c12 [Chrysin, 5,7-dihydroxyflavone]
- phosphorylation of STAT6 by the stimulus with LPS+IL-4 ([1]; C57BL/6N mice, oral chrysin once every 2 days for 2 weeks, total 28 mg/kg, spleen lymphocytes, LPS+IL-4 (500 U/mL) 30 min, vs control system): suppressed
- oral dose at which chrysin is efficacious as an antiallergic agent ([1]; male adults having an average body weight of 60 kg (28 mg/kg)): ≥ 1.68 g/day
- phosphorylation of STAT6 [2]: suppressed
- IL-4 level after taking chrysin ([3]; in words): lower than the detection limit
- blood levels of G-CSF, GM-CSF, leptin and TNF-α ([3]; in words): tendency toward increase
- cytokine levels of 26 of the 32 kinds of cytokines ([3]; in words): no change
- G-CSF blood level, relative value ([3]; non-intake group = 1): 2.43
- GM-CSF blood level, relative value ([3]; non-intake group = 1): 1.68
- IL-4 blood level, relative value ([3]; non-intake group = 1): 0
- Leptin blood level, relative value ([3]; non-intake group = 1): 1.25
- MCP-1 blood level, relative value ([3]; non-intake group = 1): 0.49
- TNF-α blood level, relative value ([3]; non-intake group = 1): 2.17
